Some test systems named below: 786-0 renal; A498 renal; A549 NSCLC; ACHN renal; K-562 leukemia; MCF7 breast; NCI-H226 lung; PC-3 prostate; SF-295 CNS; TK-10 renal.
Common to all, as to experiment: NCI tumour cell line growth inhibition, 48 h

“And” between values parts separate entries of the source, which are not always exact repeats. Equal values may be shown once.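 Interpolation was linear, between the two tested concentrations surrounding the appropriate level; five concentrations were tested over 48 hours in 96-well plates. GI50: concentration for 50% inhibition of growth. At the TGI there is no net growth.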

Two compounds from PubChem BioAssay (NCI) can be followed below.

For `Fc1ccc(-c2nc3n(c2-c2ccncc2)CCS3)cc1`, the GI50 in the test with 786-0 renal, with A498 renal, in the test with A549 NSCLC, in the test on ACHN renal, with K-562 leukemia and with MCF7 breast was greater than 25 µM each time. Moreover, the GI50 with NCI-H226 lung was greater than 16.4 µM; in the test with PC-3 prostate, greater than 25 µM; in the test on SF-295 CNS, greater than 25 µM; in the test with TK-10 renal it was greater than 25 µM. Further, the TGI with 786-0 renal, with A498 renal, in the test with A549 NSCLC, in the test on ACHN renal, in the test with K-562 leukemia and in the test with MCF7 breast was greater than 25 µM each time. Further, the TGI in the test on NCI-H226 lung, in the test with PC-3 prostate, in the test with SF-295 CNS and with TK-10 renal was greater than 25 µM each time.
As to `C=C(C)[C@@H]1CC=C(CO)CC1`, the GI50 in the test on 786-0 renal, in the test on A498 renal, in the test on A549 NSCLC, in the test with ACHN renal, in the test on K-562 leukemia and in the test on NCI-H226 lung was greater than 10 µM each time. The GI50 in the test with SF-295 CNS and in the test with TK-10 renal was greater than 10 µM in each case. Also, the TGI is > 10 µM and 943 µM in the test on 786-0 renal; > 10 µM and 1170 µM in the test with A498 renal; > 10 µM and 755 µM with A549 NSCLC; > 10 µM and 657 µM in the test with ACHN renal; > 10 µM and 1140 µM with K-562 leukemia; greater than 10 µM with MCF7 breast. Moreover, the TGI in the test with NCI-H226 lung is > 10 µM and 1090 µM; in the test with PC-3 prostate, greater than 10 µM; in the test with SF-295 CNS it was > 10 µM and 941 µM; in the test with TK-10 renal, > 10 µM and 998 µM.
